T/C data for 23 compounds are collected here from PubChem BioAssay AID314 (DTP/NCI, 2004).

For the experiment, the system named is DBA/2 mice, P1534 leukemia ip, survival T/C. The experiment is described as follows: NCI In Vivo Anticancer Drug Screen. Data for tumor model P1534 Leukemia (intraperitoneal) in DBA/2 mice. The following applies: endpoint: mean survival time, higher = longer survival. On the procedure:
The antitumor activity of compounds was measured in mice bearing transplantable tumors. Survival or tumor size were measured and the results are expressed as the measurement made in the treated group (T) divided by the measurement made in the vehicle treated control group (C). The tumor model used in this assay is P1534 Leukemia (intraperitoneal) in DBA/2 mice

[1] abbreviates: dose: 2.0 mg/kg/injection, schedule: Q01DX010 (ip), vehicle: saline.
[2] abbreviates: dose: 4.0 mg/kg/injection, schedule: Q01DX010 (ip), vehicle: saline.
Setting [3] is: dose: 8.0 mg/kg/injection, schedule: Q01DX010 (ip), vehicle: saline.
Setting [4] is: dose: 16.0 mg/kg/injection, schedule: Q01DX010 (ip), vehicle: saline.
[5] abbreviates: dose: 5.0 mg/kg/injection, schedule: Q01DX010 (ip), vehicle: saline.
Where [6] appears, read: dose: 20.0 mg/kg/injection, schedule: Q01DX010 (ip), vehicle: saline.
Where [7] appears, read: dose: 37.5 mg/kg/injection, schedule: Q01DX010 (ip), vehicle: saline.
Where [8] appears, read: dose: 15.6 mg/kg/injection, schedule: Q01DX010 (ip), vehicle: saline.
[9] abbreviates: dose: 31.3 mg/kg/injection, schedule: Q01DX010 (ip), vehicle: saline.
[10] abbreviates: dose: 62.5 mg/kg/injection, schedule: Q01DX010 (ip), vehicle: saline.
[11] abbreviates: dose: 125.0 mg/kg/injection, schedule: Q01DX010 (ip), vehicle: saline.
Setting [12] is: dose: 0.5 mg/kg/injection, schedule: Q01DX010 (ip), vehicle: saline.
[13] abbreviates: dose: 1.0 mg/kg/injection, schedule: Q01DX010 (ip), vehicle: saline.
The mark [14] stands for this setting: dose: 50.0 mg/kg/injection, schedule: Q01DX010 (ip), vehicle: saline.
Where [15] appears, read: dose: 100.0 mg/kg/injection, schedule: Q01DX010 (ip), vehicle: saline.
Setting [16] is: dose: 200.0 mg/kg/injection, schedule: Q01DX010 (ip), vehicle: saline.
Where [17] appears, read: dose: 6.25 mg/kg/injection, schedule: Q01DX010 (ip), vehicle: saline.
Setting [18] is: dose: 12.5 mg/kg/injection, schedule: Q01DX010 (ip), vehicle: saline.
Setting [19] is: dose: 25.0 mg/kg/injection, schedule: Q01DX010 (ip), vehicle: saline.
Setting [20] is: dose: 250.0 mg/kg/injection, schedule: Q01DX010 (ip), vehicle: saline.

“And” between values parts separate entries of the source, which are not always exact repeats. Equal entries are not always repeated. Inconclusive results and toxic doses are left out.

Take `CCCCCC(=O)O[C@]1(C(C)=O)CC[C@H]2[C@@H]3CCC4=CC(=O)CC[C@]4(C)[C@H]3CC[C@@]21C`: the T/C (dose: 250.0 mg/kg/injection, schedule: Q01DX010 (sc), vehicle: steriod suspending solution) is 103 % of control; the T/C (dose: 375.0 mg/kg/injection, schedule: Q01DX010 (sc), vehicle: steriod suspending solution) is 100 % of control; the T/C (dose: 500.0 mg/kg/injection, schedule: Q01DX010 (sc), vehicle: steriod suspending solution) was 100 % of control; the T/C (dose: 750.0 mg/kg/injection, schedule: Q01DX010 (sc), vehicle: steriod suspending solution) is 107 % of control.
Take `CCNNC(=O)[C@@H]1[C@H](c2cc(OC)c(OC)c(OC)c2)c2cc3c(cc2[C@H](O)[C@H]1CO)OCO3`: the T/C is, setting by setting: under setting [1], 100 % of control; under setting [2], 100 % of control; under setting [3], 96 % of control and 100 % of control and 111 % of control; under setting [4], 100 % of control (2×) and 103 % of control; (dose: 32.0 mg/kg/injection, schedule: Q01DX010 (ip), vehicle: saline) 103 % of control.
As for `O=c1[nH]c(=O)n(C2CC(O)C(CO)O2)cc1F` (configuration not stated), the T/C was 107 % of control and 111 % of control (dose: 2.5 mg/kg/injection, schedule: Q01DX010 (ip), vehicle: saline); 111 % of control under setting [5]; 153 % of control under setting [6]; 169 % of control under setting [7].
For the compound `CCNc1nncs1`, the T/C runs as follows: under setting [8], 100 % of control; under setting [9], 100 % of control.
Regarding `O=CN(O)CC(=O)O`, the T/C under setting [8] is 93 % of control, the T/C under setting [9] is 93 % of control, the T/C under setting [10] is 96 % of control and the T/C under setting [11] is 93 % of control.
With `S=P(N1CC1)(N1CC1)N1CC1`, the T/C is, setting by setting: (dose: 0.25 mg/kg/injection, schedule: Q01DX010 (ip), vehicle: saline) 91 % of control and 99 % of control; under setting [12], 94 % of control and 100 % of control; under setting [13], 95 % of control; under setting [1], 87 % of control and 89 % of control.
`CC(CCC(C)OS(C)(=O)=O)OS(C)(=O)=O` (configuration not stated): the T/C under setting [1] is 96 % of control and 103 % of control; the T/C under setting [2] is 100 % of control and 107 % of control; the T/C under setting [3] is 96 % of control and 100 % of control.
On to `O=c1cnn(C2OC(CO)C(O)C2O)c(=O)[nH]1` (configuration not stated), for which the T/C was 103 % of control and 117 % of control under setting [14]; 96 % of control and 113 % of control under setting [15]; 91 % of control and 108 % of control under setting [16].
For the compound `COC(=O)c1[nH]c(=O)[nH]c(=O)c1F`, the T/C was 103 % of control under setting [13] and 93 % of control under setting [2].
On to `CN(C)Cc1c[nH]c2ccccc12`, for which the T/C under setting [8] is 100 % of control and the T/C under setting [9] is 100 % of control.
Regarding `CC(=O)O[C@]1(C(C)=O)CC[C@H]2[C@@H]3C[C@H](C)C4=CC(=O)C=C[C@]4(C)[C@@]3(F)[C@@H](O)C[C@@]21C`, the T/C (dose: 12.5 mg/kg/injection, schedule: Q01DX010 (sc), vehicle: steriod suspending solution) is 88 % of control.
`C[C@H]1C(=O)O[C@@H]2CCN3CC=C(COC(=O)[C@](C)(O)[C@@]1(C)O)[C@H]23`: the T/C is, setting by setting: (dose: 3.13 mg/kg/injection, schedule: Q01DX010 (ip), vehicle: saline) 100 % of control and 117 % of control; under setting [17], 96 % of control and 107 % of control; under setting [18], 96 % of control and 107 % of control; under setting [19], 100 % of control.
As to `C=C(C(=O)OC1CC2CCC(C1)N2C)c1ccccc1` (configuration not stated), the T/C under setting [5] is 100 % of control.
Regarding `COC1C(OC(N)=O)C(O)C(Oc2ccc3c(O)c(NC(=O)c4ccc(O)c(CC=C(C)C)c4)c(=O)oc3c2C)OC1(C)C` (configuration not stated), the T/C is, setting by setting: under setting [17], 100 % of control; under setting [18], 104 % of control; under setting [19], 100 % of control; under setting [14], 103 % of control and 104 % of control; under setting [15], 96 % of control; under setting [16], 92 % of control.
On to `Cn1cnc([N+](=O)[O-])c1Sc1ncnc2nc[nH]c12`, for which the T/C under setting [18] was 96 % of control.
With `CN(C)/N=N/c1nc[nH]c1C(N)=O`, the T/C was 96 % of control under setting [19], 90 % of control under setting [14] and 86 % of control under setting [15].
With `C[C@]12CC[C@H](OC3OC(CO)C(O)C(O)C3O)C[C@H]1CC[C@@H]1[C@@H]2CC[C@]2(C)[C@@H](C3=CCOC3=O)CC[C@]12O` (some centres not stated), the T/C reads like this: under setting [12], 100 % of control; under setting [13], 91 % of control.
For `CS(=O)(=O)OCCCl`, the T/C (dose: 18.8 mg/kg/injection, schedule: Q01DX010 (ip), vehicle: saline) was 89 % of control; the T/C under setting [7] is 100 % of control; the T/C (dose: 75.0 mg/kg/injection, schedule: Q01DX010 (ip), vehicle: saline) is 92 % of control.
`NCCCCCCNC(=O)CCC(=O)NCCCCCCN`: the T/C was 95 % of control under setting [4] and 91 % of control (dose: 64.0 mg/kg/injection, schedule: Q01DX010 (ip), vehicle: saline).
In the case of `NC(=O)c1ccc(N)nc1`, under “dose: 3.0 mg/kg/injection, schedule: Q01DX010 (ip), vehicle: saline”, the T/C was 90 % of control.
In the case of `O=c1[nH]c(=O)n(C2CC(O)C(CO)O2)cc1Br` (configuration not stated), the T/C by setting is: under setting [10], 121 % of control; under setting [11], 107 % of control; under setting [20], 96 % of control.
As to `Cc1cc(N(CCCl)CCCl)ccc1N=Nc1ccccc1C(=O)O`, the T/C by setting is: under setting [5], 114 % of control and 123 % of control; (dose: 10.0 mg/kg/injection, schedule: Q01DX010 (ip), vehicle: saline) 118 % of control; under setting [6], 107 % of control and 111 % of control.
With `CC(C)(C)CC(C)(C)c1ccc(O)cc1`, the T/C under setting [10] is 100 % of control; the T/C under setting [11] is 100 % of control; the T/C under setting [20] was 107 % of control; the T/C (dose: 500.0 mg/kg/injection, schedule: Q01DX010 (ip), vehicle: saline) is 111 % of control.
